Reference: ChEMBL document CHEMBL5236648, “Improved synthesis of deoxyalpinoid B and quantification of antileishmanial activity of deoxyalpinoid B and sulforaphane” (Bioorg Med Chem, 2023)
Calls of active or inactive are those of the source. The rule behind the calls is not given here.

Columns and labels:
[1] = Cytotoxicity against human THP-1 cells assessed as cell viability at 10 uM incubated for 48 hrs by MTT assay relative to control; format: toxicity, cell-based; details: read-out: Activity
Leishmania donovani [2] = assay: Antileishmanial activity against Leishmania donovani MHOM/IN/Dd8 promastigotes assessed as promastigotes viability at 50 uM incubated for 48 hrs by MTT assay relative to control; format: functional
Leishmania donovani [3] = assay: Antileishmanial activity against Leishmania donovani MHOM/IN/Dd8 promastigotes infected in PMA-differentiated human THP-1 cells assessed as activation of neuroactive ligand-receptor interactions at 10 uM incubated for 18 hrs by KEGG analysis; format: functional, organism-based
[4] = Cytotoxicity against human THP-1 cells assessed as cell viability at 5 uM incubated for 48 hrs by MTT assay relative to control; format: toxicity, cell-based; details: read-out: Activity
Leishmania donovani [5] = assay: Antileishmanial activity against Leishmania donovani MHOM/IN/Dd8 promastigotes assessed as inhibition of promastigotes growth incubated for 48 hrs by MTT assay; format: functional, organism-based; details: MHOM/IN/Dd8, 48 h
THP-1 [6] = assay: Induction of oxidative stress in human THP-1 cells assessed as increase in intracellular ROS level at 10 uM incubated for 1 hr by H2DCFA fluorescent probe based flow cytometry analysis; format: functional, cell-based
Leishmania donovani [7] = assay: Antileishmanial activity against Leishmania donovani MHOM/IN/Dd8 promastigotes assessed as promastigotes viability at 10 uM incubated for 48 hrs by MTT assay relative to control; format: functional
[8] = Cytotoxicity against human THP-1 cells assessed as cell viability at 50 to 100 uM incubated for 48 hrs by MTT assay relative to control
Leishmania infantum = assay: Antileishmanial activity against Leishmania infantum MHOM/TN/80/IPT-1 promastigotes assessed as inhibition of promastigotes growth incubated for 48 hrs by MTT assay; format: functional, organism-based; details: MHOM/TN/80/IPT-1, 48 h
THP-1 [9] = assay: Induction of oxidative stress in human THP-1 cells assessed as increase in intracellular ROS level at 0.5 uM incubated for 1 hr by H2DCFA fluorescent probe based flow cytometry analysis; format: functional, cell-based
Leishmania donovani [10] = assay: Antileishmanial activity against Leishmania donovani MHOM/IN/Dd8 metacyclic promastigotes infected in PMA-differentiated human THP-1 cells assessed as reduction in number of amastigotes per 100 cell at 0.5 uM incubated for 48 hrs by DAPI staining based inverted microscopic analysis; format: functional, organism-based
Leishmania donovani [11] = assay: Antileishmanial activity against Leishmania donovani MHOM/IN/Dd8 promastigotes infected in PMA-differentiated human THP-1 cells assessed as increase in Hes family transcription factor 7 gene expression at 10 uM incubated for 18 hrs by RNA-seq analysis; format: functional, organism-based
Leishmania donovani [12] = assay: Induction of oxidative stress in Leishmania donovani MHOM/IN/Dd8 promastigotes assessed as increase in intracellular ROS level at 10 to 50 uM incubated for 24 hrs by H2DCFA fluorescent probe based flow cytometry analysis; format: functional, organism-based; details: dose 10-50 µM
Leishmania donovani [13] = assay: Antileishmanial activity against Leishmania donovani MHOM/IN/Dd8 promastigotes infected in PMA-differentiated human THP-1 cells assessed as increase in heat shock protein A6 expression at 10 uM incubated for 18 hrs by RNA-seq analysis; format: functional, organism-based
Leishmania donovani [14] = assay: Antileishmanial activity against Leishmania donovani MHOM/IN/Dd8 promastigotes infected in PMA-differentiated human THP-1 cells assessed as increase in heat shock protein A7 expression at 10 uM incubated for 18 hrs by RNA-seq analysis; format: functional, organism-based
Leishmania donovani [15] = assay: Antileishmanial activity against Leishmania donovani MHOM/IN/Dd8 metacyclic promastigotes infected in PMA-differentiated human THP-1 cells assessed as reduction in amastigotes formation at 10 uM incubated for 48 hrs by DAPI staining based inverted microscopic analysis; format: functional, organism-based
THP-1 [16] = assay: Cytotoxicity against human THP-1 cells assessed as reduction in cell viability at 50 to 100 uM incubated for 48 hrs by MTT assay; format: toxicity, cell-based; details: thp-1, 48 h, dose 50-100 µM
Leishmania donovani [17] = assay: Induction of oxidative stress in Leishmania donovani MHOM/IN/Dd8 promastigotes assessed as increase in mitochondrial superoxide level at 10 to 50 uM incubated for 24 hrs by Mito sox based flow cytometry analysis; format: functional, organism-based; details: dose 10-50 µM

Row | SMILES | viability at 48 h, 10 µM [1] | Activity (Leishmania donovani [2]) | Activity (Leishmania donovani [3]) | viability at 48 h, 5 µM [4] | IC50 (Leishmania donovani [5]) | Activity (THP-1 [6]) | Activity (Leishmania donovani [7]) | viability at 48 h, 100 µM [8] | IC50 (Leishmania infantum) | Activity (THP-1 [9]) | Activity (Leishmania donovani [10]) | Activity (Leishmania donovani [11]) | Activity (Leishmania donovani [12]) | Activity (Leishmania donovani [13]) | Activity (Leishmania donovani [14]) | Activity (Leishmania donovani [15]) | Activity (THP-1 [16]) | Activity (Leishmania donovani [17])
1 | C[S+]([O-])CCCCN=C=S (stereo unspecified) [SULFORAPHANE] | 76% | <10% | Active | 84% | 23.3 µM | Active | 57% | < 45% | 16.5 µM |  |  |  |  |  |  |  |  | 
2 | C[C@@H]1[C@H](O)[C@@H](C)/C=C/C=C/C=C/C=C/C=C/C=C/C=C/[C@H](O[C@@H]2O[C@H](C)[C@@H](O)[C@H](N)[C@@H]2O)C[C@@H]2O[C@](O)(C[C@@H](O)C[C@@H](O)[C@H](O)CC[C@@H](O)C[C@@H](O)CC(=O)O[C@H]1C)C[C@H](O)[C@H]2C(=O)O |  |  |  |  |  |  |  |  |  | inactive | Active |  |  |  |  |  |  | 
3 | COc1cc(CC/C=C/C(=O)CCc2ccccc2)ccc1O | 76% | <10% | Active | 79% | 21.4 µM | Active | 43% |  | 22 µM |  |  | Active | Active | Active | Active | Active | Toxic | Active
